Reference: patent US20230337677A1, “ARYL AND PYRIDYL AMIDE PESTICIDES AND COMPOSITIONS THEREOF” (University of Florida Research Foundation, Incorporated, priority 2019, published 2023)

Key:
[1] = system: Aedes aegypti strain Orlando (sensitive); assay: Topical toxicity (24 hour mortality), Ae. aegypti Orlando; assay type: in vivo; conditions: topical application, 24 h mortality, female adults, susceptible Orlando strain
Procedure, shortened: (§1)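 Females aged 3–6 days received 200 nL of compound in ethanol topically on the thorax, 10 per concentration per replicate, and were kept at 28° C with sugar water.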

[2] = system: Anopheles gambiae G3 sensitive strain; assay: Topical toxicity (24 hour mortality), An. gambiae G3; assay type: in vivo; conditions: topical application, 24 h mortality, female adults, susceptible strain G3
Procedure, shortened: as §1

[3] = system: Anopheles gambiae Akron kdr (Akdr) strain, resistant to pyrethroids; assay: Topical toxicity (24 hour mortality), An. gambiae Akdr; assay type: in vivo; conditions: for An. gambiae RR (resistance ratio): 24 h LD50 resistant strain (AKDR)/24 h LD50 susceptible strain (G3); for An. gambiae AKDR LD50: topical application, 24 h mortality, female adults, pyrethroid-resistant Akdr strain
Procedure, shortened: as §1

[4] = system: Aedes aegypti and Anopheles gambiae female adults; assay: Analysis of topical toxicity (statements in words, species not given); assay type: in vivo; conditions: structure-activity analysis of Table 4
Method: (§2) The Aedes aegypti strains Orlando (sensitive) as well as the Puerto Rico (PR, resistant to permethrin) were used. The Anopheles gambiae (G3 sensitive strain, as well as Akron kdr (Akdr) strain, resistant to pyrethroids were also assessed. The larvae were provided by the USDA, Gainesville Fl, and raised in a pan with tap water maintained at 28° C. Larvae were fed a ground liver and yeast mixture, and pupae were placed in emergence cages. Adults were held at 28° C. and provided with cotton balls soaked in 10% sugar water for rearing and for all bioassays.
Female adults from 3 to 6 days were used for the experiments. The drug was dissolved in ethanol and then applied with a micro-applicator on the thorax, between the legs: 200 nL of drug per female mosquito, with different concentrations of the drug; 10 mosquitos were treated together per concentration per replicate, and put together in a small container with free access to sweet water. Mortality, i.e. no visible movement, was assessed 24 hours after treatment. Every compound was assessed on at least 3 different cohorts of mosquitoes, and the LD50 values and slopes were determined with Probit analysis, corrected with Abbott's formula. […]

[5] = system: Aedes aegypti mosquitoes, insecticide-susceptible Orlando strain; assay type: in vivo; conditions: for 1 h % Repellency, 100 μg/cm^2: screened at 100 μg/cm^2, strain not given; for 1 h Repellency EC50, μg/cm^2: (OR)
Procedure, shortened: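 Sixteen female mosquitoes per glass tube facing netting-shielded filter paper treated with acetone solutions (30-0.01 μg/ml; screen at 100 μg/cm^2), no contact. Proportion on treated side scored up to 60 min, then flight-out checked 30 min; mortality after 24 hr constant exposure.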

[6] = system: Aedes aegypti strain Puerto Rico (PR, resistant to permethrin); assay: Topical toxicity (24 hour mortality), Ae. aegypti Puerto Rico; assay type: in vivo; conditions: for Ae. aegypti RR (resistance ratio): 24 h LD50 resistant strain (PR)/24 h LD50 susceptible strain (OR); for Ae. aegypti PR LD50: topical application, 24 h mortality, female adults, permethrin-resistant Puerto Rico strain
Method: as §2
Female adults from 3 to 6 days were used for the experiments. The drug was dissolved in ethanol and then applied with a micro-applicator on the thorax, between the legs: 200 nL of drug per female mosquito, with different concentrations of the drug; 10 mosquitos were treated together per concentration per replicate, and put together in a small container with free access to sweet water. Mortality, i.e. no visible movement, was assessed 24 hours after treatment. Every compound was assessed on at least 3 different cohorts of mosquitoes, and the LD50 values and slopes were determined with Probit analysis, corrected with Abbott's formula.

[7] = system: Aedes aegypti mosquitoes, insecticide-susceptible Orlando strain; conditions: for 24 h LC50, μg/cm^2: LC50 (OR)
[8] = system: Aedes aegypti mosquitoes, insecticide-susceptible Orlando strain; assay: whole plant or invertebrate; conditions: 24 h, read-out: 24 h % Mortality, 100 μg/cm^2
[9] = system: Aedes aegypti mosquitoes, pyrethroid-resistant Puerto Rico strain; assay: Vapor repellency glass tube assay (1 h), resistant strain; assay type: in vivo; conditions: with resistance ratio (PR)
[10] = system: Aedes aegypti mosquitoes, pyrethroid-resistant Puerto Rico strain; assay: Vapor toxicity (24 h lethality under constant exposure in glass tubes), resistant strain; conditions: LC50, with resistance ratio (PR)

Structure (SMILES) | Ae. aegypti OR LD50 [1] [ng/mg] | An. gambiae G3 LD50 [2] [ng/mg] | An. gambiae RR (resistance ratio) [3] | An. gambiae AKDR LD50 [3] [ng/mg] | topical toxicity, statement in words (Example 10) [4] | 1 h % Repellency, 100 μg/cm^2 [5] [%] | further results
O=C(Nc1cc(Cl)nc(C(F)(F)F)c1)C(F)(C(F)(F)F)C(F)(F)F [GMR092, N-(2-chloro-6-(trifluoromethyl)pyridin-4-yl)-2,3,3,3-tetrafluoro-2-(trifluoromethyl)propanamide] | 8.8 | 9.60 | 0.3 | 3.30 | retained high mortality | – | –
C#C[C@@H]1[C@@H](C(=O)Nc2cc(Cl)nc(Cl)c2)C1(C)C [GMR086] | >6000 | >50 | – | >50 | reduced toxicity | – | –
O=C(Nc1cc(Cl)nc(Cl)c1)C(F)(F)Sc1ccc(F)cc1 [GMR147] | 1983 | – | – | – | reduction in toxicity | – | –
O=C(Nc1cc(Cl)nc(Cl)c1)c1c(F)c(F)c(F)c(F)c1F [GMR089] | >6000 | >100 | – | >100 | reduction in toxicity | – | –
O=C(Nc1cc(Cl)nc(Cl)c1)C(F)(F)C(F)(F)F [GMR030] | 49 | 9.6 | 1.5 | 14.2 | – | 28 | Ae. aegypti RR (resistance ratio) [6]: 1.0; Ae. aegypti PR LD50 [6]: 50 ng/mg; 24 h LC50, μg/cm^2 [7]: 35 μg/cm^2; mortality at 100 µg/cm2 [8]: 85%
CCOC(=O)Nc1cc(Cl)nc(Cl)c1 [GMR032] | 892 | 18.3 | 3.6 | 66.0 | promising activity | – | –
O=C(Nc1cc(Cl)nc(Cl)c1)C(F)(C(F)(F)F)C(F)(F)F [GMR053] | 17 | 5.8 | 0.5 | 2.7 | retained high mortality | – | Ae. aegypti RR (resistance ratio) [6]: 0.4; Ae. aegypti PR LD50 [6]: 7.10 ng/mg
CCCCCC(=O)Nc1cc(Cl)nc(Cl)c1 [GMR054] | >3000 | >100 | – | >100 | reduced activity | – | –
CC(F)(F)C1(C(=O)Nc2cc(Cl)nc(Cl)c2)CC1 [GMR076] | 719 | – | – | >100 | reduced toxicity | – | –
CC(=O)Nc1ccccc1C(F)(F)F [MTFI-1-4A] | – | – | – | – | – | 78 | 1 h Repellency EC50, μg/cm^2 [5]: 26 μg/cm^2; 1 h Repellency EC50, μg/cm^2 (RR) [9]: 81 μg/cm^2
O=C(Nc1cc(Cl)nc(Cl)c1)C(F)(F)C(F)(F)C(F)(F)F [GMR031] | 34 | 8.0 | 0.8 | 6.7 | – | 34 | Ae. aegypti RR (resistance ratio) [6]: 0.9; Ae. aegypti PR LD50 [6]: 31 ng/mg; 24 h LC50, μg/cm^2 [7]: 25 μg/cm^2; mortality at 100 µg/cm2 [8]: 98%; 24 h LC50, μg/cm^2 (RR) [10]: 22 μg/cm^2
CC1(C)[C@H](C=C(Cl)Cl)[C@H]1C(=O)OCc1c(F)c(F)cc(F)c1F [Transfluthrin, transfluthrin, reference compound] | – | – | – | – | – | – | 1 h Repellency EC50, μg/cm^2 [5]: 0.5 μg/cm^2; 1 h Repellency EC50, μg/cm^2 (RR) [9]: 2.3 μg/cm^2; 24 h LC50, μg/cm^2 [7]: 0.16 μg/cm^2; 24 h LC50, μg/cm^2 (RR) [10]: 7.6 μg/cm^2
CC(C)(C)OC(=O)Nc1cc(Cl)nc(Cl)c1 [GMR033] | 1199 | 21.4 | 2.2 | 46.7 | promising activity | – | –
O=C(Nc1cc(Cl)nc(Cl)c1)C(F)(F)F [GMR029] | 190 | 27.9 | 1.6 | 45.3 | – | 42 | Ae. aegypti RR (resistance ratio) [6]: 1.3; Ae. aegypti PR LD50 [6]: 238 ng/mg; 24 h LC50, μg/cm^2 [7]: 181 μg/cm^2; mortality at 100 µg/cm2 [8]: 24%
O=C(Nc1cc(C(F)(F)F)cc(C(F)(F)F)c1)C(F)F [MTFI-4-2B] | – | – | – | – | – | 100 | 1 h Repellency EC50, μg/cm^2 [5]: 15 μg/cm^2; 1 h Repellency EC50, μg/cm^2 (RR) [9]: 24 μg/cm^2; mortality at 100 µg/cm2 [8]: 88%
C/C=C\C[C@H]1C(=O)CC[C@@H]1CC(=O)Nc1cc(F)c(F)c(F)c1 [GMR098] | >6000 | >1000 | – | >1000 | reduced toxicity | 18 | 24 h % Mortality, 100 μg/cm^2 ([7]; in vivo): 0%
O=C(NC(=O)c1cc(Cl)nc(Cl)c1)c1cc(Cl)nc(Cl)c1 [GMR117] | >1500 | – | – | – | reduced activity | 62 | vapor repellency / mortality, statement in words (Example 8) ([5]; structure-activity analysis of Table 2): some repellency and mortality; mortality at 100 µg/cm2 [8]: 100%
CCCCCC(=O)Nc1cc(Cl)nc(C(F)(F)F)c1 [GMR067] | 3506 | – | – | 3506 | reduced activity | – | –
C/C=C/C1C(C(=O)OCc2c(F)c(F)c(COC)c(F)c2F)C1(C)C (stereo not drawn) [Metofluthrin, metofluthrin, reference compound] | – | – | – | – | – | – | 1 h Repellency EC50, μg/cm^2 [5]: 0.3 μg/cm^2; 1 h Repellency EC50, μg/cm^2 (RR) [9]: 12 μg/cm^2; 24 h LC50, μg/cm^2 [7]: 0.84 μg/cm^2; 24 h LC50, μg/cm^2 (RR) [10]: 43 μg/cm^2
CCN(CC)C(=O)c1cccc(C)c1 [DEET, N,N-diethyl-m-toluamide, reference compound] | – | – | – | – | – | – | 1 h Repellency EC50, μg/cm^2 [5]: 35 μg/cm^2; response in glass tube assay (FIG. 1) ([5]; representative response, in words): Mosquitoes moved away from the DEET treated side; 1 h Repellency EC50, μg/cm^2 (RR) [9]: 79 μg/cm^2
O=C(Nc1cc(Cl)nc(Cl)c1)C(F)(F)C(F)(F)C(F)(F)C(F)(F)C(=O)Nc1cc(Cl)nc(Cl)c1 [GMR077] | 5373 | – | – | >100 | reduced activity | – | –
